Results from ChEMBL document CHEMBL1149553, “Bicyclo[2.2.2]octanes: close structural mimics of the nuclear receptor-binding motif of steroid receptor coactivators” (Bioorg Med Chem Lett, 2007).

Biological target: T1, Estrogen receptor (Homo sapiens, UniProt P03372)
T1 sequence (P03372 whole entry): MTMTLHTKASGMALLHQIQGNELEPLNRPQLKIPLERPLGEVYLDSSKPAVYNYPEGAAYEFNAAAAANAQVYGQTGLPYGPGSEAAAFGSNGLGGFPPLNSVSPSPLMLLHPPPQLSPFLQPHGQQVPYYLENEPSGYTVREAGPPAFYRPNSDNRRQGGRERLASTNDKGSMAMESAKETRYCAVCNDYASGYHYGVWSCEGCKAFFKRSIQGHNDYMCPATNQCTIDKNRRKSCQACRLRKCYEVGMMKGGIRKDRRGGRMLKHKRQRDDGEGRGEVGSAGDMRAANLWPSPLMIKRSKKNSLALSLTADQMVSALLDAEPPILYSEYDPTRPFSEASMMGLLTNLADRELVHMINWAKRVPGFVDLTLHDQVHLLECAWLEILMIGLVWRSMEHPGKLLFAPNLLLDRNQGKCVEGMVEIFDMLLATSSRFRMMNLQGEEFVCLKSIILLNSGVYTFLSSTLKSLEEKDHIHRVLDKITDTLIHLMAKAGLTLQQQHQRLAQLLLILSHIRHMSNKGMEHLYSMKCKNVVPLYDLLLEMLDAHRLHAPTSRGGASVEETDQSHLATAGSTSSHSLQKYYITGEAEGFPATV
Assay: Displacement of iodoacetamide-fluorescein-labeled SRC3 from ERalpha by TR-FRET assay

In order of falling Ki:
1. COC(=O)C(CC1(C)CC2CCC1CC2C(C)(C)CCNC(=O)CCC(C)C)NC(=O)OCc1ccccc1 (stereo unspecified)  38 µM
2. COC(=O)C(N)CC1(C)CC2CCC1CC2C(C)(C)CCNC(=O)CCC(C)C (stereo unspecified)  32 µM
3. COC(=O)C(CC1(C)CC2CCC1CC2C(C)(C)CCNC(=O)CCC(C)C)C(=O)O (stereo unspecified)  12 µM
4. COC(=O)C(=CC1(C)CC2C=CC1CC2C(C)(C)CCNC(=O)CCC(C)C)C(=O)OC (stereo unspecified)  7.9 µM
5. COC(=O)C(CC1(C)CC2CCC1CC2C(C)(C)CCNC(=O)CCC(C)C)C(=O)OC (stereo unspecified)  7.1 µM
6. CC[C@H](C)[C@H](NC(=O)[C@H](CCCCN)NC(=O)[C@H](Cc1c[nH]cn1)NC(=O)[C@H](CCCNC(=N)N)NC(=O)[C@H](CCC(=O)O)NC(=O)[C@@H](NC(=O)[C@@H](N)CC(C)C)[C@@H](C)O)C(=O)N[C@@H](CC(C)C)C(=O)N[C@@H](Cc1c[nH]cn1)C(=O)N[C@@H](CCCNC(=N)N)C(=O)N[C@@H](CC(C)C)C(=O)N[C@@H](CC(C)C)C(=O)N[C@@H](CCC(N)=O)C(=O)N[C@@H](CCC(=O)O)C(=O)NCC(=O)N[C@@H](CO)C(=O)N1CCC[C@H]1C(=O)N[C@@H](CO)C(=O)N[C@@H](CC(=O)O)C(=O)O  0.19 µM
